SMILES strings stand for the structures. Where a name gives a salt, the structure may show the parent alone.

What is called IC50 is the concentration that inhibits the measured activity by half. Read a high IC50 as weaker potency in that assay.

In this assay the target is T1, JAK3 (Homo sapiens, UniProt P52333).
T1 construct: The Ramos B-cell line was acquired from ATCC (ATCC Catalog No. CRL-1596); host or cells: Ramos B-cell line (human)
T1 sequence (P52333 1-1124): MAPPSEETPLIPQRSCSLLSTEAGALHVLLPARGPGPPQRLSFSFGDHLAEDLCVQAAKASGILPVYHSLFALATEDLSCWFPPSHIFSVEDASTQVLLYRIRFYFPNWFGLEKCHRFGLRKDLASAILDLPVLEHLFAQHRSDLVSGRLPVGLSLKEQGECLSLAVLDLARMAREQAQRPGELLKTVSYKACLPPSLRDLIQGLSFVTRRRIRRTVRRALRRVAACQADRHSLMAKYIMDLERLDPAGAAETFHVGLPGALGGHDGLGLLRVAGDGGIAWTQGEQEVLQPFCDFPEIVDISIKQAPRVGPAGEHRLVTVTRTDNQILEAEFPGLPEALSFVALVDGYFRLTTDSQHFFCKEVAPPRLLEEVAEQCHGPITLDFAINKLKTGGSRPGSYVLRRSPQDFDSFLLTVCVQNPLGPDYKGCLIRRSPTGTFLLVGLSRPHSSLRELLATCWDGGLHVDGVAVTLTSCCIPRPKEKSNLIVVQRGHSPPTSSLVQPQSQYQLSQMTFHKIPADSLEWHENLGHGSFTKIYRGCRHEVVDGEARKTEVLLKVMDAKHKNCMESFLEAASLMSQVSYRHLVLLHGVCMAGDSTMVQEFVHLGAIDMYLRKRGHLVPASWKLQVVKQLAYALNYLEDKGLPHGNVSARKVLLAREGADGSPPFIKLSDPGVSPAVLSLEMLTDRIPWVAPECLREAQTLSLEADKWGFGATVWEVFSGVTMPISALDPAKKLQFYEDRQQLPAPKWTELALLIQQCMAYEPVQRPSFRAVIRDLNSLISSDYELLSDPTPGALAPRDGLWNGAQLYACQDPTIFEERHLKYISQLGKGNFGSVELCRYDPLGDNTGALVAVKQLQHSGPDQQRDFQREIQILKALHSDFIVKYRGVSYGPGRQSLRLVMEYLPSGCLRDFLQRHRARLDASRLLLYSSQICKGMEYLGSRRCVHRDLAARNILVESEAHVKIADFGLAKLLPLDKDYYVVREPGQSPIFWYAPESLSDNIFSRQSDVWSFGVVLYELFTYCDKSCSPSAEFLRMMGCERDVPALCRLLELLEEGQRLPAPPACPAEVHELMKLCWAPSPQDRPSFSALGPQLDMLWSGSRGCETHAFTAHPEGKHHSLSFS
In words: Assay for CD23 expression on Ramos B-cells stimulated by IL-4 (Table IV: ability to inhibit JAK3 activity). The assay is classed as cell-based. The note with it: tested under conditions described in Example 3 (so in the source). In short, it runs like this:
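IL-4-induced CD23 surface expression on human Ramos B cells, detected by flow cytometry after 20–24 h stimulation (IL-4 final 50 units/mL). Compound or DMSO added 1 h beforehand at 37 °C; cells kept in RPMI with 5% serum.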
`Cc1cnc(Nc2ccc(C)c3c2COC3=O)nc1Nc1ccc2oc(=O)[nH]c2c1` [II-12, 5-methyl-N4-(2-oxo-2,3-dihydro-1,3-benzoxazol-5-yl)-N2-(1-oxo-1,3-dihydro-7-methylisobenzofuran-4-yl)-2,4-pyrimidinediamine] came in with an IC50 below 500 nM.
The same measure for `Cc1cnc(Nc2cc(C)c3c(c2)C(=O)OC3)nc1Nc1ccc2oc(=O)[nH]c2c1` [II-13, 5-methyl-N4-(2-oxo-2,3-dihydro-1,3-benzoxazol-5-yl)-N2-(1-oxo-1,3-dihydro-4-methylisobenzofuran-6-yl)-2,4-pyrimidinediamine]: below 500 nM; for `Cc1cnc(Nc2ncc(C)c(Nc3ccc4oc(=O)[nH]c4c3)n2)cc1C` [II-14, N2-(4,5-dimethylpyridin-2-yl)-5-methyl-N4-(2-oxo-2,3-dihydro-1,3-benzoxazol-5-yl)-2,4-pyrimidinediamine]: above 10000 nM.
Under `Cc1cc(C)nc(Nc2ncc(C)c(Nc3ccc4oc(=O)[nH]c4c3)n2)c1` [II-15, N2-(4,6-dimethylpyridin-2-yl)-5-methyl-N4-(2-oxo-2,3-dihydro-1,3-benzoxazol-5-yl)-2,4-pyrimidinediamine] stands 500 to 5000 nM; under `Cc1cnc(Nc2ccc(C#N)c(C)n2)nc1Nc1ccc2oc(=O)[nH]c2c1` [II-16, N2-(5-cyano-6-methylpyridin-2-yl)-5-methyl-N4-(2-oxo-2,3-dihydro-1,3-benzoxazol-5-yl)-2,4-pyrimidinediamine], above 10000 nM.
The same measure for `COc1cc(Nc2ncc(C)c(Nc3ccc4oc(=O)[nH]c4c3)n2)ccn1` [II-17, N2-(2-methoxypyridin-4-yl)-5-methyl-N4-(2-oxo-2,3-dihydro-1,3-benzoxazol-5-yl)-2,4-pyrimidinediamine]: below 500 nM.
Regarding `Cc1cc(Nc2ncc(C)c(Nc3ccc4oc(=O)[nH]c4c3)n2)cc(C)n1` [II-19, N2-(2,6-dimethylpyridin-4-yl)-5-methyl-N4-(2-oxo-2,3-dihydro-1,3-benzoxazol-5-yl)-2,4-pyrimidinediamine], the IC50 was below 500 nM.
The same measure for `COc1cccc(Nc2ncc(C)c(Nc3ccc4oc(=O)[nH]c4c3)n2)n1` [II-20, N2-(6-methoxypyridin-2-yl)-5-methyl-N4-(2-oxo-2,3-dihydro-1,3-benzoxazol-5-yl)-2,4-pyrimidinediamine]: below 500 nM; for `Cc1ccc(Nc2ncc(C)c(Nc3ccc4oc(=O)[nH]c4c3)n2)nc1C` [II-21, N2-(5,6-dimethylpyridin-2-yl)-5-methyl-N4-(2-oxo-2,3-dihydro-1,3-benzoxazol-5-yl)-2,4-pyrimidinediamine]: 500 to 5000 nM.
In turn, `Cc1cc(Nc2ncc(C)c(Nc3ccc4oc(=O)[nH]c4c3)n2)ncc1C#N` [II-22, N2-(5-cyano-4-methylpyridin-2-yl)-5-methyl-N4-(2-oxo-2,3-dihydro-1,3-benzoxazol-5-yl)-2,4-pyrimidinediamine] registered an IC50 of 500 to 5000 nM.
Compound `O=C1NCC=Cc2cc(Nc3ncc(F)c(Nc4ccc5oc(=O)[nH]c5c4)n3)ccc21` [II-23, 5-(5-fluoro-2-(1-oxo-2,3-dihydro-1H-benzo[c]azepin-7-ylamino)pyrimidin-4-ylamino)benzo[d]oxazol-2(3H)-one formate salt] registered an IC50 below 500 nM.
The same measure for `O=C1COc2cc(Nc3ncc(F)c(Nc4ccc5oc(=O)[nH]c5c4)n3)ccc2N1` [II-25, 7-(4-(2,3-dihydro-2-oxobenzo[d]oxazol-5-ylamino)-5-fluoropyrimidin-2-ylamino)-2H-benzo[b][1,4]oxazin-3(4H)-one formate salt]: below 500 nM; for `O=C1CCc2cc(Nc3ncc(F)c(Nc4ccc5oc(=O)[nH]c5c4)n3)ccc2N1` [II-26, 6-(4-(2,3-dihydro-2-oxobenzo[d]oxazol-5-ylamino)-5-fluoropyrimidin-2-ylamino)-3,4-dihydroquinolin-2(1H)-one trifluoroacetate salt]: below 500 nM.
`O=C1CCCc2cc(Nc3ncc(F)c(Nc4ccc5oc(=O)[nH]c5c4)n3)ccc2N1` [II-27, 7-(4-(2,3-dihydro-2-oxobenzo[d]oxazol-5-ylamino)-5-fluoropyrimidin-2-ylamino)-4,5-dihydro-1H-benzo[b]azepin-2(3H)-one trifluoroacetate salt] came in with an IC50 below 500 nM.
In turn, `CN1C(=O)CCCc2cc(Nc3ncc(F)c(Nc4ccc5oc(=O)[nH]c5c4)n3)ccc21` [II-28, 7-(4-(2,3-dihydro-2-oxobenzo[d]oxazol-5-ylamino)-5-fluoropyrimidin-2-ylamino)-4,5-dihydro-1-methyl-1H-benzo[b]azepin-2(3H)-one trifluoroacetate salt] showed an IC50 below 500 nM.

The values are drawn from US11174251B2, “Compositions and methods for inhibition of the JAK pathway” (Rigel Pharmaceuticals, Inc., priority 2010, dated 2021).
